These are literature values, as cited in US6921840B1 (The Trustees of the University of Pennsylvania, priority 1999, dated 2005).

For the data set the following is noted: at 2 to 6 hr, Biegon et al. 1993; cited from earlier work.

On to `O=[N+]([O-])c1ccc2nc(N3CCNCC3)ccc2c1I` [[^123I]5-I-6-NO2-quipazine, 5-iodo-6-nitroquipazine], for which the “specific regional binding ratio, hypothalamus” value is given as 4.0.
